Test [1] relates to RAW 264.7 murine monocyte/macrophage cell line (PMA-stimulated respiratory burst). As to the kind of experiment: In vitro anti-inflammatory activity by inhibition of macrophage activation (luminol chemiluminescence, PMA-stimulated). It is filed as cell-based, mouse. Particulars: for inhibition at 1000 µM / inhibition at 3000 µM / inhibition at 10000 µM / inhibition at 30000 µM: Mus musculus, RAW264.7, RAW 264.7, PMA 100 ng, luminol; for inhibition at 1000 µM: 1 mM; for inhibition at 3000 µM: 3 mM; for inhibition at 10000 µM: 10 mM; for inhibition at 30000 µM: 30 mM. The method, then:
Activation of alveolar macrophages is a critical component of pulmonary inflammation. In their activated state, alveolar macrophages secrete a variety of inflammatory mediators and reactive oxygen species. In the present in vitro model of inflammation, mouse macrophages are activated by phorbol-12-myristate-13-acetate (PMA). The intensity of macrophage activation in the presence or absence of the subject compounds is determined by measuring the respiratory burst (release of reactive oxygen species) of the macrophages.
The RAW 264.7 cell line (American Type Culture Collection, Rockville, Md., USA, Accession No. TIE 71) is a murine monocyte/macrophage line, the cells of which show many of the differentiative functions of a macrophage. Like macrophages, the cells are capable of phagocytosis and undergo an oxidative burst (increased oxygen consumption) and production of oxygen radicals (e.g., superoxide) in response to appropriate signals. Agents that inhibit the activation of these cells in vitro so as to inhibit the respiratory burst and corresponding production of oxygen radicals associated with activation interdict a critical step in the inflammatory process.
The respiratory burst and corresponding production of oxygen radicals that accompany macrophage activation can be measured in a variety of ways, including chemiluminescence based on the reaction of the oxygen radicals with luminol added to the culture medium (see M. A. Trush et al., 1978, "The Generation of Chemiluminescence by Phagocytic Cells.", Methods in Enzymology 57: 462-494). Chemiluminescence generated from luminol in the culture medium of macrophage cell lines is recognized in the art as a marker of macrophage activation. Materials:
Cell line: RAW 264.7 (ATCC TIB-71, attachment dependent);
Culture medium: Dulbecco's Modified Eagle's Medium (DMEM, Sigma Chemical Co. Cat. No. D-7777) with 10% Fetal Bovine Serum (FBS);
Standard protocol for culturing cell lines: in T-75 or T-150 flasks; 37° C.; 95% air, 5% CO2; 100% humidity;
Cell line is passaged when approximately 80% confluent; with trypsin (1 mg/mL) and ethylenediamine tetraacetic acid (EDTA) (1 mM in Ca-Mg free Hank's balanced salt solution); at 1:4 to 1:5 split;
All procedures are performed aseptically in a Class II biological safety cabinet using standard Biosafety Level 2 (BL-2 containment procedures. In order to prevent genetic drift in stock cell lines, fresh cultures are prepared at approximately monthly intervals with cells thawed from liquid nitrogen storage. Methodology:
After cell passage, count cells with a hemocytometer; Adjust cell concentration to approximately 1,000,000 cells per mL;
Suspend cells in DMEM lacking phenol red and without FBS;
Pipette 1 mL of cell suspension into a standard luminometer cuvette (12×75 mm), commercially obtainable from Analytical Luminescence Laboratories, San Diego, Calif., USA;
Add luminol to final concentration of 0.2 mM;
Add test compound dissolved in phosphate buffered saline (PBS), or in dimethyl sulfoxide (DMSO) for final concentration levels ranging from 1 to 30 mM;
Add 100 nanograms of phorbol myristate acetate (PMA); and
Wait 1 minute and read photo counts (i.e., luminescence) on a Monolight 2010 luminometer available from Analytical Luminescence Laboratories, San Diego.

In a further test the test system is Mouse Tracheal Mucus. As to the kind of experiment: Mucolytic activity in mouse tracheal mucus (phenol red secretion, aerosol). It is filed as in vivo. The following applies: mice, 25 mg/mL in saline, approximately 100 mg/kg, 5 mice, saline control zero percent. The source says: The invention provides a method of alleviating respiratory distress due to tenacious pulmonary mucous secretions in a patient suffering from such distress. In the preferred embodiment, the method is accomplished by the intermittent inhalation of an aerosol or dry powder formulation of α-tocopheryl-phosphocholine to deliver an effective mucolytic amount of α-tocopheryl-phosphocholine to the lung airways. […] The in vivo mucolytic assay is similar to that described by Chand et al. Agents and Actions, (1993) 38:165-170, incorporated herein by reference.
The procedure, which delivers the test compound to mice as an aerosol, is a modified assay for the evaluation of mucolytic activity in mice as described by Chand et al., previously cited.
1. The test animals are Hsd:1CR(CD-1) mice that weigh approximately 25 g each.
2. The test compound is diluted in normal saline to a concentration of 25 mg/mL and administered using a human De Vilbiss atomizer Model No. 15 at approximately 100 mg/kg. The control group receives saline. The nozzle is placed in the mouth of the mouse and 2 spray doses are given.
3. After 30 minutes, phenol red dissolved as a 5% solution in saline is given IP at a dose of 0.1 mL/10 g body weight.
4. […]
6. The amount of phenol red secreted into the trachea is quantitated photometrically at 546 nm. […]

The test system of the next test is premature fetal rabbits. As to the kind of experiment: Surfactant activity in RDS model using premature fetal rabbits (dynamic lung compliance). It is filed as in vivo, rabbit. Particulars: fetal rabbits 27 days gestation, 0.2 mL endotracheal instillation, 30 minute intervals for 90 minutes. The method, then:
A common in vivo model for the evaluation of surfactants is lung compliance in premature fetal rabbits. This method is described in Revak et al., Am. Rev. Respir. Dir. (1986) 134:1258-1265. In this assay, the effectiveness of the subject compounds as lung surfactants is determined by evaluating dynamic lung compliance in premature fetal rabbits which are known to have difficulty initiating breathing due to low levels of natural lung surfactant.
1. The test animals are fetal rabbits delivered prematurely at 27 days of gestation.
2. The test solution is prepared by suspending the Formula I compound ([…]) in 6 mL of 10 mM HEPES buffer with sodium chloride (150 mM) at a pH of 7.4.
3. 0.2 mL of test solution is administered to the fetal rabbit before breathing commenced by endotracheal instillation and then monitored for breathing. The control group receives saline.
4. The fetal rabbit is ventilated and monitored for breathing.
5. After 30 minutes, the rabbit is examined for quality of breathing and color. A healthy pink color is indicative of good breathing. […] The higher the value of measured compliance, the better the breathing of the test animal.
6. Compliance values are determined at 30 minute intervals for 90 minutes.

Test [2] concerns Histamine-Induced Airway Resistance. As to the kind of experiment: Histamine-induced airway resistance in anesthetized guinea pigs (total pulmonary resistance). The format is in vivo, guinea pig. Particulars: after induction with histamine, salbutamol 10 μg/kg or same equivalent dosage. The method, then:
The following is a protocol for the evaluation of anti-histamine activity in anesthetized guinea pigs.
1. Guinea pigs of 650-1000 g are used to facilitate catheterization of the jugular vein and carotid artery. The guinea pigs are anesthetized with 35-45 mg/kg pentobarbital sodium. When or if the recordings are unstable, anesthetic additions are made during the course of the intervention. The cutdown is a ventral medial incision over the cervical area so that the trachea, jugular vein and carotid artery can be cannulated. The animals are immediately attached to a volume regulated Harvard® rodent respirator, Model 683, via a tracheostomy and the respirator is set at 60 respirations per minute and a volume of 8 ml/kg to maintain a normal arterial P-CO2 of approximately 40 mmHg. […] These two parameters are measured before and after each drug is given and at each increment in the dose response studies with each drug candidate and recorded. Total pulmonary resistance (TPR) is calculated as the difference between the expiratory pressure and inspiratory pressures with a constant volume.
After the anesthetic and muscle relaxant are given, the animal is allowed to stabilize. […] The dose-related increases or decreases are quantitated against these controls to determine the percent inhibition of histamine activity. […]

On to `Cc1c(C)c2c(c(C)c1OP(=O)([O-])OCC[N+](C)(C)C)CCC(C)(CCCC(C)CCCC(C)CCCC(C)C)O2` (stereo not drawn) [CPR 2001, α-tocopheryl-phosphocholine], for which the “anti-inflammatory activity with increasing concentration” value in test [1] (1 to 30 mM, in contrast to α-tocopherol) is “anti-inflammatory activity markedly increases”. In addition, in test [1], the inhibition at 1000 µM was 5%, the inhibition at 3000 µM stood at 13%, the inhibition at 10000 µM turned out to be 31% and the inhibition at 30000 µM came out at 56%. Moreover, the “average measured percent change in mucolytic activity” value in the test with Mouse Tracheal Mucus is reported as “about 82.6%”. Besides, the “compliance values (dynamic lung compliance)” value in the test on premature fetal rabbits is listed as “significantly greater compliance values”.

In the case of `CC(=O)N[C@@H](CS)C(=O)O` [N-acetylcysteine, reference compound], the “average measured percent change in mucolytic activity” value in the test with Mouse Tracheal Mucus was “about 59.5%”.

Regarding `CC(C)(C)NCC(O)c1ccc(O)c(CO)c1` (stereo not shown) [salbutamol], the “TPR course after administration” value in test [2] is “briefly increased and then decreased below the control value”.

Consider `Cc1c(C)c2c(c(C)c1O)CCC(C)(CCCC(C)CCCC(C)CCCC(C)C)O2` (stereo not drawn) [α-tocopherol, reference compound], for which, in test [1], the inhibition at 1000 µM is -3%, the inhibition at 3000 µM was -6%, the inhibition at 10000 µM is -6% and the inhibition at 30000 µM was -14%.

What is called inhibition is the relative decrease from the control value, in per cent.

Source of the values: patent publication US5883084A, “Treatment of respiratory diseases utilizing α-tocopheryl-phosphocholine” (Clarion Pharmaceuticals Inc., priority 1998, dated 1999).
